The test system of test [1] is Puccinia arachidis. The test can be described thus: Antifungal activity against Puccinia arachidis in ground nut assessed as rust pustule count at 10 ug/cm'2 measured after 12 days from inoculation. In kind it is functional.
In test [2] the test system is Puccinia arachidis. In words: Antifungal activity against Puccinia arachidis in ground nut assessed as rust pustule count at 1 ug/cm'2 measured after 12 days from inoculation (reference value: 22.73 %). It counts as functional.

Take `CC(=O)O[C@@H]1C[C@H]2C(C)(C)C(=O)C=C[C@]2(C)[C@H]2CC[C@]3(C)C(=CC(=O)[C@H]3c3ccoc3)[C@@]21C` [AZADIRADIONE]: the “inhibition (INH)” value was found to be 76.9% with Puccinia arachidis [1] and 75.7% with Puccinia arachidis [2].

`CC1(C)C(=O)C=C[C@@]2(C)C1=C(O)C(=O)[C@]1(C)[C@@H]2CC[C@@]2(C)[C@H](c3ccoc3)C[C@H]3O[C@]321` [CEDRELONE]: the figures for the “inhibition (INH)” value with Puccinia arachidis [1] and with Puccinia arachidis [2] were 93.4% and 98.4%, respectively.

`CC(=O)OC1=C2C(C)(C)C(=O)CC[C@]2(C)[C@H]2CC[C@@]3(C)[C@H](c4ccoc4)C[C@H]4O[C@]43[C@]2(C)C1=O` [DIHYDROCEDRELONEDIACETATE]: the “inhibition (INH)” value is given as 87% in the test with Puccinia arachidis [1] and 77.6% in the test on Puccinia arachidis [2].

Regarding `CC1(C)C(=O)CC[C@@]2(C)C1=C(O)C(=O)[C@]1(C)[C@@H]2CC[C@@]2(C)[C@H](c3ccoc3)C[C@H]3O[C@]321` [DIHYDROCEDRELONE], the entries for the “inhibition (INH)” value in the test with Puccinia arachidis [1] and with Puccinia arachidis [2] were 66.7% and 42.6%, respectively.

On to `CC1(C)C(=O)C=C[C@@]2(C)C1C(O)(C(=O)O)[C@@]1(C)C[C@@]34O[C@@H]3C[C@@H](c3ccoc3)C4C[C@H]21` (stereo partly drawn) [ISOCEDRELONIC ACID], for which the “inhibition (INH)” value with Puccinia arachidis [1] was 91.4%; with Puccinia arachidis [2], 36.9%.

For `CC1(C)O[C@H]2CC(=O)OC[C@]23[C@H]2CC[C@@]4(C)[C@H](c5ccoc5)OC(=O)[C@H]5O[C@]54[C@]2(C)C(=O)C[C@@H]13` [LIMONIN], the “inhibition (INH)” value in the test on Puccinia arachidis [1] is -15.7%; in the test with Puccinia arachidis [2] it was 67.7%.

Consider `CC1(C)O[C@H]2CC(=O)OC[C@]23[C@H]2CC[C@@]4(C)[C@@H](c5ccoc5)OC(=O)[C@H]5O[C@]54[C@]2(C)[C@H](O)C[C@@H]13` [LIMONOL], for which the “inhibition (INH)” value in the test with Puccinia arachidis [1] came out at 62.3%; in the test on Puccinia arachidis [2], 37.9%.

For the compound `COC(=O)C1(O)C2C(C)(C)C(=O)C=C[C@]2(C)[C@H]2CC3[C@H](c4ccoc4)C[C@H]4O[C@@]34C[C@@]21C` (stereo partly drawn) [METHYL ISOCEDRELONATE], the figures for the “inhibition (INH)” value in the test with Puccinia arachidis [1] and in the test with Puccinia arachidis [2] were 2.3% and 7.6%, respectively.

Consider `CC(=O)O[C@H](CC(=O)O)[C@]1(C)[C@H]2CC[C@@]3(C)[C@@H](c4ccoc4)OC(=O)[C@H]4O[C@]43[C@]2(C)C(=O)C[C@H]1C(C)(C)O` [NOMILINIC ACID], for which the “inhibition (INH)” value worked out at 34.2% with Puccinia arachidis [1] and 28.5% with Puccinia arachidis [2].
